The subject of this experiment is Murine peritoneal macrophages (PMΦ). Nature of the experiment: Macrophage activation assay: LPS/IFNγ-induced inflammatory cytokine expression (ELISA, Luminex). Particulars: for Percentage inhibition of LPS/IFNγ-induced inflammatory cytokine expression: RANTES / Percentage inhibition of LPS/IFNγ-induced inflammatory cytokine expression: TNFα / Percentage inhibition of LPS/IFNγ-induced inflammatory cytokine expression: IL-1β / Percentage inhibition of LPS/IFNγ-induced inflammatory cytokine expression: IL-6 / Percentage inhibition of LPS/IFNγ-induced inflammatory cytokine expression: IL-12 p40: PMΦ; for Percentage inhibition of LPS/IFNγ-induced inflammatory cytokine expression: RANTES / Percentage inhibition of LPS/IFNγ-induced inflammatory cytokine expression: TNFα: pre-treatment 1 h (0.1 pM-100 nM), then LPS 100 ng/ml + IFNγ 20 ng/ml 15 h, optimal dose (1 pM Chemerin and C15, 100 pM C13 and C19); for Anti-inflammatory activity in the MΦ activation assay: peptides 0.1 pM-100 nM; for Suppression of LPS/IFNγ-induced RANTES secretion (FIG. 2B) / Suppression of LPS/IFNγ-induced TNFα expression (FIG. 2B): C13m 100 pM, C15m 1 pM, C17m 1 pM, pre-treatment 1 h then LPS/IFNγ 15 h; for Percentage inhibition of LPS/IFNγ-induced inflammatory cytokine expression: IL-1β / Percentage inhibition of LPS/IFNγ-induced inflammatory cytokine expression: IL-6 / Percentage inhibition of LPS/IFNγ-induced inflammatory cytokine expression: IL-12 p40: pre-treatment 1 h, then LPS/IFNγ 15 h, 1 pM Chemerin and C15; for Optimal dose (maximal response) for suppression of LPS/IFNγ-induced cytokine expression: macrophage activation assay. Format: cell-based, mouse. How it is done: Murine peritoneal macrophages (PMθ, also referred to as PMΦ herein) were cultured under various conditions: Untreated; LPS (100 ng/ml) and IFNγ (20 ng/ml) for 15 h; Chemerin (1 pM) pre-treatment for 1 h then LPS/IFNγ for 15 h; Leupeptin (protease inhibitor; 15 mg/ml) and Chemerin (1 pM) for 1 h then LPS/IFNγ for 15 h; or Dexamethasone (positive control; 1 μM pre-treatment for 1 h then LPS/IFNγ for 15 h.
Murine PMθ were cultured under various conditions: Untreated, LPS (100 ng/ml) and IFNγ (20 ng/ml) for 15 h; Chemerin peptides (at a concentration of 1 pM-100 nM) pre-treatment for 1 h then LPS/IFNγ for 15 h. […] Experiments were performed with triplicate determinations for each treatment. Representative data from five independent experiments employing cells from different groups of C57B16/J mice are shown. p<0.01 **; p<0.001 *** relative to LPS/IFNγ treated samples.
With reference to Table 1, anti-inflammatory activity of chemerin-derived peptides—Murine PMΦ were cultured as described for FIG. 1B and were challenged with LPS (100 ng/ml) and IFNγ (20 ng/ml) for 15 h with/without pre-treatment with peptides (0.1 pM-100 nM) for 1 h. […] Peptide sequences are: C11 (P144-A154; […]), C13 (P144-S156; […]), C15 (A140-A154; […]), C19 (A138-S156; […]; Seq ID: No. 37), N19 (E23-K41; […] Seq ID No: 44) and M20 (K86-K105; […] Seq ID No. 45). Control peptides: scrambled C15 (C15-S; […]) and mutant C15 (C15-M; […]; F148A & F153A). Data represent mean percentage inhibition of cytokine production by classically activated macrophages from 4-8 independent experiments as determined by ELISA and Luminex assay.
1 ml 2% BioGEL polyacrylamide beads in sterile Phosphate-Buffered Saline (PBS) were injected intraperitoneally (ip) into C57B1/6J mice. Four days after ip BioGEL administration, mice were sacrificed by the CO, method according to Home Office guidelines. Peritoneal cavities were flushed with 10 ml sterile PBS-2 mM EDTA to harvest BioGEL-evoked/elicited cellular infiltrate. Suspensions of harvested cells were centrifuged at 1000×g for 5 mins at 4° C. The supernatants were discarded and cell pellets were resuspended in 6 mls OptiMEM medium supplemented with 2 mM Glutamine, 50 units/ml Penicillin and 50 μg/ml Streptomycin. Macrophages were quantified following incubation on ice for 5-10 mins with Turk's solution using a haemocytometer. Cell suspensions (2 mls; 1.5×10^6/well) were plated in six-well tissue culture plates (35 mm diameter: Costar, UK) and allowed to adhere for 2 hours at 37° C. in a humidified atmosphere containing 5% CO2, to isolate macrophage populations by adherence. This gave greater than 95% purity assessed by cytospinning, staining of cells with Methylene Blue and Eosin and counting based on cellular morphology. Nonadherent cells (mainly granulocytes) were discarded and wells were washed three times with sterile PBS to remove loosely adherent or dead cells. […] To determine PTX sensitivity and dependency upon proteolysis, cells were pre-incubated with PTX (200 ng/ml) or Leupeptin (15 μg/ml). Additional cells were treated with peptides alone. Supernatants were harvested and stored at −20° C. until use in Enzyme-Linked Immunosorbance Assays (ELISAs) and Luminex assays. Cells were lysed to allow extraction of total RNA by the TRIZOL method. Lysates were stored at −80° C. until RNA extraction following manufacturer's guidelines (Qiagen, RNeasy Mini Prep Kit).
RANTES, Tumour necrosis factor (TNFα) and CCL9 concentrations in cell supernatants were assessed by ELISA. IL-12 p40, IL-10, IL-1β, TNFα, MCP-1 (Monocyte chemoattractant protein-1) and IL-6 levels were determined by Luminex multiplex bead assay (Bio-rad 6 plex assay). Lower limits of detection for ELISAs were 0.1-0.5 ng/ml and 10-50 pg/ml for Luminex assays.
(An ELISA detects its analyte on a solid surface through an enzyme-linked reagent.)

For “GLFHDQAGPPAGYEF (Scrambled C15) [C15-S, control peptide, scrambled C15, reference compound]”, the “Percentage inhibition of LPS/IFNγ-induced inflammatory cytokine expression: RANTES” value amounted to 0%, the “Percentage inhibition of LPS/IFNγ-induced inflammatory cytokine expression: TNFα” value amounted to 0% and the “Anti-inflammatory activity in the MΦ activation assay” value was “devoid of anti-inflammatory activity”.
Regarding “AGEDPHGYALPGQAA (Mutant C15) [C15-M, control peptide, mutant C15 (F148A & F153A), reference compound]”, the “Percentage inhibition of LPS/IFNγ-induced inflammatory cytokine expression: RANTES” value is on record as 0%, the “Percentage inhibition of LPS/IFNγ-induced inflammatory cytokine expression: TNFα” value amounted to 0% and the “Anti-inflammatory activity in the MΦ activation assay” value is “devoid of anti-inflammatory activity”.
For “AGEDPHGYFLPGQFAFS (listed as Mus sp.) [C17m]”, the “Suppression of LPS/IFNγ-induced RANTES secretion (FIG. 2B)” value amounted to 49% and the “Suppression of LPS/IFNγ-induced TNFα expression (FIG. 2B)” value was 66%.
For the molecule “AGEDPHGYFLPGQFA (listed as Mus sp.) [C15]”, the “Suppression of LPS/IFNγ-induced RANTES secretion (FIG. 2B)” value is 41%, the “Suppression of LPS/IFNγ-induced TNFα expression (FIG. 2B)” value worked out at 56%, the “Percentage inhibition of LPS/IFNγ-induced inflammatory cytokine expression: RANTES” value was found to be 47% and the “Percentage inhibition of LPS/IFNγ-induced inflammatory cytokine expression: TNFα” value was 61%. For the same molecule, the “Percentage inhibition of LPS/IFNγ-induced inflammatory cytokine expression: IL-1β” value came to 54%, the “Percentage inhibition of LPS/IFNγ-induced inflammatory cytokine expression: IL-6” value was found to be 43%, the “Percentage inhibition of LPS/IFNγ-induced inflammatory cytokine expression: IL-12 p40” value was determined as 47% and the “Optimal dose (maximal response) for suppression of LPS/IFNγ-induced cytokine expression” value was 1 pM.

B1: Chemerin: 140 amino acid mouse Chemerin protein of Sequence ID no: 34 (protein, listed as Mus sp.)
chain: TVGTEPELSETQRRSLQVALEEFHKHPPVQLAFQEIGVDRAEEVLFSAGTFVRLEFKLQQTNCPKKDWKKPECTIKPNGRRRKCLACIKMDPKGKILGRIVHCPILKQGPQDPQELQCIKIAQAGEDPHGYFLPGQFAFS
On to B1, for which the “Percentage inhibition of LPS/IFNγ-induced inflammatory cytokine expression: RANTES” value came to 40%, the “Percentage inhibition of LPS/IFNγ-induced inflammatory cytokine expression: TNFα” value is listed as 70%, the “Percentage inhibition of LPS/IFNγ-induced inflammatory cytokine expression: IL-1β” value is 60% and the “Percentage inhibition of LPS/IFNγ-induced inflammatory cytokine expression: IL-6” value is recorded as 42%. In addition, the “Percentage inhibition of LPS/IFNγ-induced inflammatory cytokine expression: IL-12 p40” value was determined as 54% and the “Optimal dose (maximal response) for suppression of LPS/IFNγ-induced cytokine expression” value came out at 1 pM. Besides, the “Pertussis toxin sensitivity of the effects on macrophages (FIG. 1D)” value (chemerin 0.1-1 pM ± PTX 200 ng/ml) is “pertussis toxin-sensitive”.

Values taken from patent publication US8906865B2, “Treatment of inflammation and/or endotoxic shock” (ISIS Innovation Limited, priority 2007, dated 2014).
